Laboratory results published in publication PMC9680877 (ACS Chemical Biology, 2022).
pKd: −log10 of the molar value.

Legend:
Type in all cases: binding
TCF3 = biological target: T1, TCF3 (Homo sapiens, UniProt P15923); test: dose-response competition pulldown with MS readout
T1 sequence (P15923 1-654): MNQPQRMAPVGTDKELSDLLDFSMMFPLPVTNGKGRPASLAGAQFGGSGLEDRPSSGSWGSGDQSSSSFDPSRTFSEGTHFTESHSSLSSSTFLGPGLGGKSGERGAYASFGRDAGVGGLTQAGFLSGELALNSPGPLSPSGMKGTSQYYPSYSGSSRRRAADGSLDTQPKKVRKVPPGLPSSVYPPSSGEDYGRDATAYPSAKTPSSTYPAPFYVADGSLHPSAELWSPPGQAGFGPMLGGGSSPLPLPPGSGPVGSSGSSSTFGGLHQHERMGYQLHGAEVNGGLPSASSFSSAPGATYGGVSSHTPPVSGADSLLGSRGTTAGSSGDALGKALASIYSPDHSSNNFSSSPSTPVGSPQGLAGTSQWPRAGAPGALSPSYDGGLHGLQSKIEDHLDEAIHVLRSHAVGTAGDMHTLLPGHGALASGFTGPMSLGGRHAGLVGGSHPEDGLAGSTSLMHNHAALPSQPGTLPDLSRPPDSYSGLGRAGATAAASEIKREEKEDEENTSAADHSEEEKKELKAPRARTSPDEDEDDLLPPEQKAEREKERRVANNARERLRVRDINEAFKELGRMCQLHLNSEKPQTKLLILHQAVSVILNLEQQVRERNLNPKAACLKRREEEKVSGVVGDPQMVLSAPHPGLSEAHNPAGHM

GATA2 = biological target: T2, GATA2 (Homo sapiens, UniProt P23769); test: dose-response competition pulldown with MS readout
T2 sequence (P23769 1-480): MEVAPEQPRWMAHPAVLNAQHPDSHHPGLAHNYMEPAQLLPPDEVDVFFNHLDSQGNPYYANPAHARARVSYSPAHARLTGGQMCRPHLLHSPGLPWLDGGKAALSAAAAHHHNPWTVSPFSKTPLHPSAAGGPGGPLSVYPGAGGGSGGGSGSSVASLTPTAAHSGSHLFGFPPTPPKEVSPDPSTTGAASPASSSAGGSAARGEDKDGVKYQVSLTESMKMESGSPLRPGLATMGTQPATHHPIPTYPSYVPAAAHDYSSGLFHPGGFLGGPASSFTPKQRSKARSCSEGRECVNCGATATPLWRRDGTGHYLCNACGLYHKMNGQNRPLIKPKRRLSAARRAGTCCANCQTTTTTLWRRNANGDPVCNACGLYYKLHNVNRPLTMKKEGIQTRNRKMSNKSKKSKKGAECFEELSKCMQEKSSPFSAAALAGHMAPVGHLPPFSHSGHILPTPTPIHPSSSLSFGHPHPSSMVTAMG

MED15 = biological target: T3, MED15 (Homo sapiens, UniProt Q96RN5); test: dose-response competition pulldown with MS readout
T3 sequence (Q96RN5 1-788): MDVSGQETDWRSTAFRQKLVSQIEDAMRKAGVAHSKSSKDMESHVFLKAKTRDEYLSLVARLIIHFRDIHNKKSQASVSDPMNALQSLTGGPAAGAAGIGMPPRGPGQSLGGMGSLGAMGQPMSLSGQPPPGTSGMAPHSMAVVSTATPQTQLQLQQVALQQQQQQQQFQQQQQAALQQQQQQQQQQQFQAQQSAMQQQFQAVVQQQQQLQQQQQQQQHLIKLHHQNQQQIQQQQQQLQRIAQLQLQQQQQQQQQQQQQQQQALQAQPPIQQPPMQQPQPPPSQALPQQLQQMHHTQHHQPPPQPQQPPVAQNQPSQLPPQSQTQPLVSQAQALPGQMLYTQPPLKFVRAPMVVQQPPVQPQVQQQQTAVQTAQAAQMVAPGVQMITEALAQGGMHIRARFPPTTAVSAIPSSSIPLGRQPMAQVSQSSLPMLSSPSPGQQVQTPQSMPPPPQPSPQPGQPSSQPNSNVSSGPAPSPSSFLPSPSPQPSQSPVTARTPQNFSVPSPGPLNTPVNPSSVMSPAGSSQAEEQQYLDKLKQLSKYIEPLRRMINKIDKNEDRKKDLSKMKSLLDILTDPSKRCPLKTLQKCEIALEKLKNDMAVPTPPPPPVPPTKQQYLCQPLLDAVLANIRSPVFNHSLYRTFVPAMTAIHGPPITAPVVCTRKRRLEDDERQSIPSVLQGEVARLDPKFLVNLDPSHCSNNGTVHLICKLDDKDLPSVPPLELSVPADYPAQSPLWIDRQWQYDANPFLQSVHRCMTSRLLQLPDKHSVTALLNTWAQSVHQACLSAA

CNOT1 = CNOT1 (Homo sapiens, UniProt A5YKK6); test: dose-response competition pulldown with MS readout; conditions: SW-620 lysate; free FAD vs photo-immobilized FAD beads
Chain of CNOT1 (A5YKK6 whole entry): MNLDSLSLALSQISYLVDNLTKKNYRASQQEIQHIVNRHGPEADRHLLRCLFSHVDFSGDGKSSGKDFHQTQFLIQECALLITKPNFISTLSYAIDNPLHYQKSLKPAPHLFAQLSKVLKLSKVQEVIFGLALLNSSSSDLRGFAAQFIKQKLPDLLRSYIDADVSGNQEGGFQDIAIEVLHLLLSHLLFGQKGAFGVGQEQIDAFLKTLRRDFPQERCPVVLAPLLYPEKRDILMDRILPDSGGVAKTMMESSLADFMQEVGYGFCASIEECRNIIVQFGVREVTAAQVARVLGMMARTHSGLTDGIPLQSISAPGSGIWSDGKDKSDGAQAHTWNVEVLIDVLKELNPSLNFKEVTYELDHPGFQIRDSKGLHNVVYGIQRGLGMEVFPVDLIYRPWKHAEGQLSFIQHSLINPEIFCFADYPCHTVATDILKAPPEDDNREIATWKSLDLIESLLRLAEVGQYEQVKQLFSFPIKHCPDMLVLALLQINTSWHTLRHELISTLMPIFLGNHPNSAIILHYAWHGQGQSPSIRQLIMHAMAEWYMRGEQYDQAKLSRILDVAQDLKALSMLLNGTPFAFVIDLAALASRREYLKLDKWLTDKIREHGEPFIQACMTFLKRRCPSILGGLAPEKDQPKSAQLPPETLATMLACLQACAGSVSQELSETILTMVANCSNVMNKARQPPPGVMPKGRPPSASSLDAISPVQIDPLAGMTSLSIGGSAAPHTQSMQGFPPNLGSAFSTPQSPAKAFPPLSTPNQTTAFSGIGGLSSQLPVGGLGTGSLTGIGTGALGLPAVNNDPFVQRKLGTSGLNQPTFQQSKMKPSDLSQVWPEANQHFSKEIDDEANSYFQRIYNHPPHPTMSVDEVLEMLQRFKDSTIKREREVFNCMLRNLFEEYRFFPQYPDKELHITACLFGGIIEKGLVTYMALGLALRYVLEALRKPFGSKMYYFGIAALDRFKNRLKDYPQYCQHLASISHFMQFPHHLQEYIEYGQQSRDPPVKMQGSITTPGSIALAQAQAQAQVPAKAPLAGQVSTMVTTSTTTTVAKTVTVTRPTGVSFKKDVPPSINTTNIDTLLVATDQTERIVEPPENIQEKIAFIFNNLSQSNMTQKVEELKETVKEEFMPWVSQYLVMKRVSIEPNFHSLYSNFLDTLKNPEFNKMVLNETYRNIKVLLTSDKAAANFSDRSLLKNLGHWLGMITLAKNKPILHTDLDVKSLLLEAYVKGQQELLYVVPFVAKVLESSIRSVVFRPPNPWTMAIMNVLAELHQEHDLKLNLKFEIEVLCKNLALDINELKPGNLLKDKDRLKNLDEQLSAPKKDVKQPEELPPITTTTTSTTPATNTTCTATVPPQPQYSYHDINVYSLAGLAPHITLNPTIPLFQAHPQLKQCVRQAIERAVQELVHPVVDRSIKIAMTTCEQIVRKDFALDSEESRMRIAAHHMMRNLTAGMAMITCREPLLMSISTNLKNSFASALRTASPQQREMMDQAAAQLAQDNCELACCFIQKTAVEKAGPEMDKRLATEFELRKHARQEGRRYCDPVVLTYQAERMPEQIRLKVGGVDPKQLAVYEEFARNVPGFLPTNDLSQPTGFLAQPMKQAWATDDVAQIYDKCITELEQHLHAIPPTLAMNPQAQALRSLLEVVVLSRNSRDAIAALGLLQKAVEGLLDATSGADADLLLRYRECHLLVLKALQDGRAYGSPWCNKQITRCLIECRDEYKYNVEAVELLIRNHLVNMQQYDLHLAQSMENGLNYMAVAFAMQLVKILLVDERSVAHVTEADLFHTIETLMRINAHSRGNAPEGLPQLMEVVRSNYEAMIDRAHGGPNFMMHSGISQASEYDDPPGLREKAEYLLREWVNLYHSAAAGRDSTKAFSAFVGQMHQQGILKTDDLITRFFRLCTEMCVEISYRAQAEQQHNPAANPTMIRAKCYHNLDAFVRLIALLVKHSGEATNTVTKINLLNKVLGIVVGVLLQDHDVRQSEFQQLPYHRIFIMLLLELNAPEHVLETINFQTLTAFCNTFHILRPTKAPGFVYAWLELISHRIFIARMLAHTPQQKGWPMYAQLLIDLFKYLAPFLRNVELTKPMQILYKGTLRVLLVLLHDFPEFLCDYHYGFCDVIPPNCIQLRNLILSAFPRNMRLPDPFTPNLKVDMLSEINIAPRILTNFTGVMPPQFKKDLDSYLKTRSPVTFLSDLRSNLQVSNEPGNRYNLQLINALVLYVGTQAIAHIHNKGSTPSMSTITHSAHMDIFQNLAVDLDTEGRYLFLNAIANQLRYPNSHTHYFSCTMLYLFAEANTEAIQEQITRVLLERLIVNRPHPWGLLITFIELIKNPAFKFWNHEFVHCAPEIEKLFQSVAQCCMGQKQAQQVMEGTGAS

TRIM11 = biological target: T4, TRIM11 (Homo sapiens, UniProt Q96F44); test: dose-response competition pulldown with MS readout
T4 sequence (Q96F44 1-468): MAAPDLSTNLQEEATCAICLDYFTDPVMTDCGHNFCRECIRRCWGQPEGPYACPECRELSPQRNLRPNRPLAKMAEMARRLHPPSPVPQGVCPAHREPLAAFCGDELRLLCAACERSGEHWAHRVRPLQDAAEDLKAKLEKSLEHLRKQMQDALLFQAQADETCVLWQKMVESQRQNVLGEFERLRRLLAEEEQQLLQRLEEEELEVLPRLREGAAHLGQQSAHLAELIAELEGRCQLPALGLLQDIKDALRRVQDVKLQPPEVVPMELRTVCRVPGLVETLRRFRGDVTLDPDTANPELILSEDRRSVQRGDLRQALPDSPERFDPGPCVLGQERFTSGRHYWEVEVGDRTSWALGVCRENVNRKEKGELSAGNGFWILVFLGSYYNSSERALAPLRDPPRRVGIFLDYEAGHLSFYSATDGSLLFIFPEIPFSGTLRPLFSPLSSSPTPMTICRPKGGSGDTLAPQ

UBAP2L = biological target: T5, UBAP2L (Homo sapiens, UniProt Q14157); test: dose-response competition pulldown with MS readout
T5 sequence (Q14157 1-1087): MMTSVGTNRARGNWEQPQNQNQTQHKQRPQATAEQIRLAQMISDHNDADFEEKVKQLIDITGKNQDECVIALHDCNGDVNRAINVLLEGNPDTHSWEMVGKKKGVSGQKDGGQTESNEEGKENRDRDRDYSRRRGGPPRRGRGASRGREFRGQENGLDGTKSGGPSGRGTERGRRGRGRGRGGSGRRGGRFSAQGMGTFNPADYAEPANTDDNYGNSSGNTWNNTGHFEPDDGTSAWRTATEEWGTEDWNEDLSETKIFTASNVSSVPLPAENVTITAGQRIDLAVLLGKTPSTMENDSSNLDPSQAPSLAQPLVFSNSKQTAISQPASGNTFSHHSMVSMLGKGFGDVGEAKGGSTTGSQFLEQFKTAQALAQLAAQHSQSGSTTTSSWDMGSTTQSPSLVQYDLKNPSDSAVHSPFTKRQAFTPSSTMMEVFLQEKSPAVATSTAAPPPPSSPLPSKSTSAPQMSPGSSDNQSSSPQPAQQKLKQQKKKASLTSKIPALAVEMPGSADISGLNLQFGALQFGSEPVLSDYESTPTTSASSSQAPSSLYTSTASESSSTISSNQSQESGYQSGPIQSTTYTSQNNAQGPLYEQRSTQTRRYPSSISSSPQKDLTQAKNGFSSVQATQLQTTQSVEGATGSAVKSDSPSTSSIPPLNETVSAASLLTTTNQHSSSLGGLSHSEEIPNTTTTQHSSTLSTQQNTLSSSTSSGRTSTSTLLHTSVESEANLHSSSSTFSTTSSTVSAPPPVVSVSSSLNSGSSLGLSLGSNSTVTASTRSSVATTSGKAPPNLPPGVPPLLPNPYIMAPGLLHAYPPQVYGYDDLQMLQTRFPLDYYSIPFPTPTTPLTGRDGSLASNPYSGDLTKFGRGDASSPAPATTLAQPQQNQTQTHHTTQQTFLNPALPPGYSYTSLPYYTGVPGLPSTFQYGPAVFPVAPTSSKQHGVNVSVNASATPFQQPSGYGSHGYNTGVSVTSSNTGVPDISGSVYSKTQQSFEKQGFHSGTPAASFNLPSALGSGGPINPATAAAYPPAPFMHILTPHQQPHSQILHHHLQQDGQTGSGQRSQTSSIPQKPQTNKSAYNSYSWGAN

OTUD4 = biological target: T6, OTUD4 (Homo sapiens, UniProt Q01804); test: dose-response competition pulldown with MS readout
T6 sequence (Q01804 1-1114): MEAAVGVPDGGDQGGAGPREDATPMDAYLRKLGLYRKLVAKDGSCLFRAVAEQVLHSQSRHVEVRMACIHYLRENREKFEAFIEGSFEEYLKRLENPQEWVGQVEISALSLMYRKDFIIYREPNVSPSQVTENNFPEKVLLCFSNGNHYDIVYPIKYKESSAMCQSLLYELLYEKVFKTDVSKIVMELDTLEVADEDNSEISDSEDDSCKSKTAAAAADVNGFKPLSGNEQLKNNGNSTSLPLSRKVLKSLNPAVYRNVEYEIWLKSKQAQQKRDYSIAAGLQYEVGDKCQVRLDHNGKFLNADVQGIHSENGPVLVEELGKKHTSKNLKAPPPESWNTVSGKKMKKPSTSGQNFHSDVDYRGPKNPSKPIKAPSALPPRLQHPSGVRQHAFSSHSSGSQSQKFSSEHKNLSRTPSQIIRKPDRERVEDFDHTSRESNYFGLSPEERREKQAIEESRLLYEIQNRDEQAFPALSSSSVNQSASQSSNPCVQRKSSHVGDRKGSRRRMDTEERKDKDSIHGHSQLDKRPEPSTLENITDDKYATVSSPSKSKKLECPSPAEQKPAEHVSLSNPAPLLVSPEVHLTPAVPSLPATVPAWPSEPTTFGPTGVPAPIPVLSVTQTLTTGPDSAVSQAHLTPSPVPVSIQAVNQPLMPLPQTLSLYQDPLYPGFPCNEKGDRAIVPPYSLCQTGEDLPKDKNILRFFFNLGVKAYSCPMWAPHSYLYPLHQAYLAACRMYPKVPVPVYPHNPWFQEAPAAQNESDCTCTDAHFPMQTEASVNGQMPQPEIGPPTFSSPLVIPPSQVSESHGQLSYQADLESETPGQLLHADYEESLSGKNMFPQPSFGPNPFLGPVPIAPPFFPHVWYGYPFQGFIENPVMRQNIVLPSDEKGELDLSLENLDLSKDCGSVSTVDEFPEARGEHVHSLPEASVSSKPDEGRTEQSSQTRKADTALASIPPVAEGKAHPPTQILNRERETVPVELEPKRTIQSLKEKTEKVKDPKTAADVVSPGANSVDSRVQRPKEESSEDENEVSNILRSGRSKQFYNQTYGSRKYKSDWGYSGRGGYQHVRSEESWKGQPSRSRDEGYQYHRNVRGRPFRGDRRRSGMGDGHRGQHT

GATA1 = GATA1 (Homo sapiens, UniProt P15976); test: dose-response competition pulldown with MS readout
Chain of GATA1 (P15976 whole entry): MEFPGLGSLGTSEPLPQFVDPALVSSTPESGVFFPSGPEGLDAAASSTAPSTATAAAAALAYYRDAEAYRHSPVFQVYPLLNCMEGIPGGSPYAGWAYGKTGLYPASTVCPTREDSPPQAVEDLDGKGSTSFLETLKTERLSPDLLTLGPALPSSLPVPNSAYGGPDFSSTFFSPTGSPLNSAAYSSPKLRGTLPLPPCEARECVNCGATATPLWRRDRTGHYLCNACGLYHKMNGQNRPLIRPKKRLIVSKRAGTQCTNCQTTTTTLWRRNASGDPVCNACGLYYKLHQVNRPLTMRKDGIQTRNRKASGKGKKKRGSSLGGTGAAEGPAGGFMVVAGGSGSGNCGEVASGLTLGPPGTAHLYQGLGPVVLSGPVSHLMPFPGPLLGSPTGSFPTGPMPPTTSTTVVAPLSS

kinases = test: Kinobeads profiling; conditions: latest version of Kinobeads, without immobilized staurosporine

Structure (SMILES)	pKd (TCF3)	pKd (GATA2)	pKd (MED15)	CNOT1 bound by the matrix but not competed up to (CNOT1)	pKd (TRIM11)	pKd (UBAP2L)	pKd (OTUD4)	pKd (GATA1)	number of kinase targets with affinities below 10 μM (kinases)
Cc1cc2nc3c(=O)[nH]c(=O)nc-3n(C[C@H](O)[C@H](O)[C@H](O)COP(=O)(O)OP(=O)(O)OC[C@H]3O[C@@H](n4cnc5c(N)ncnc54)[C@H](O)[C@@H]3O)c2cc1C [FAD, flavin adenine dinucleotide]	7.11	8.15	7.85	> 100 µM	6.73	7.44	7.96	7.70	–
CN[C@@H]1C[C@H]2O[C@@](C)([C@@H]1OC)n1c3ccccc3c3c4c(c5c6ccccc6n2c5c31)C(=O)NC4 [Staurosporine]	–	–	–	–	–	–	–	–	94
